Laboratory results reported in PMC11313180 (International Journal of Molecular Sciences, 2024).
Read-outs that look alike come from different tables or passages of the source.

Assays:
MDA-MB-231 = test: MTT cell viability assay, MDA-MB-231; type: cell-based, human
Experimental: MTT assays were performed as previously described. Cell numbers plated differed depending on each incubation time: MDA-MB-231 5000 c/w, MCF-7 5000 c/w (72 h) and 3000 c/w (120 h), T-47D 10,000 c/w (72 h) and 5000 c/w /120 h). After incubation time, medium was replaced by MTT (solution of 5 mg/mL 3-(4,5-dimethylthiazol-2-yl)-2,5-diphenyl-tetrazoliumbromidin in phosphate buffered saline, Serva, Heidelberg, Germany). After 10 min (MCF-7), 20 min (MDA-MB-231), and 30 min (T47D) and dissolving in DMSO (VWR, Langenfeld, Germany), absorbance was measured at 544 nm and 690 nm in a FLUOstar microplate reader (BMG LabTech, Offenburg, Germany).

HDAC8 [1] = conditions: obtained by fitting Lechner et al. source data to a sigmoidal concentration–effect model; ref [21]; read-out: IC50 HDAC 8, Lechner et al.; cited from earlier work
[2] = system: class I/IIb HDAC activity in T47D cells; test: cells; type: cell-based, human; conditions: T47D cells, 48 h, substrate Boc-Lys-AC-AMC; IC50 ± SEM, one experiment in triplicates; read-out: IC50 Cellular HDAC Assay
Experimental: The cellular HDAC assay was performed based on an assay published by Heltweg and Jung and Ciossek et al.. Breast cancer cell line T-47D (12,000 c/w) was seeded in 96-well tissue culture plates (Corning, Kaiserslautern, Germany) in a total volume of 90 µL of culture medium. After 24 h, cells were incubated 48 h with increasing concentrations of a-lipoic acid. The reaction was started by adding 10 µL of 3 mM Boc-Lys(Ac)-AMC (Bachem, Bubensdorf, Switzerland) and again incubated for 3 h under cell culture conditions. […]

HDAC2 [3] = molecular target: HDAC2 (Homo sapiens, UniProt Q92769); test: Enzyme HDAC inhibition assay, HDAC2; conditions: read-out: IC50 HDAC 2; IC50 ± SEM; three experiments in duplicates
HDAC2 (Homo sapiens, UniProt Q92769), sequence (Q92769 whole entry): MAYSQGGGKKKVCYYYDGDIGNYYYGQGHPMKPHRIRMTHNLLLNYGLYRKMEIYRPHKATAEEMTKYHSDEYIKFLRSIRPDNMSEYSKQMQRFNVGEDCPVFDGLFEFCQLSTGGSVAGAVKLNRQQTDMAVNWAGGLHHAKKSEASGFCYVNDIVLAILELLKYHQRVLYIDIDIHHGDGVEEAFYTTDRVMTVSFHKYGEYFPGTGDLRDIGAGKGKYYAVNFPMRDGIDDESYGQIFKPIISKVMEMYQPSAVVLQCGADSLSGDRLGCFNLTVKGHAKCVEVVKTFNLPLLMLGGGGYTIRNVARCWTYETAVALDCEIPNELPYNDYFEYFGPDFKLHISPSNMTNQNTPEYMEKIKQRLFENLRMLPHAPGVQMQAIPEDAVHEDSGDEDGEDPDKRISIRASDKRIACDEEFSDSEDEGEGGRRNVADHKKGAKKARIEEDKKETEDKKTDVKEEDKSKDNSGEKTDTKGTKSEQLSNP
Source text: (§1) All human recombinant enzymes were purchased from Reaction Biology Corp. (Malvern, PA, USA).

HDAC2 [4] = conditions: obtained by fitting Lechner et al. source data to a sigmoidal concentration–effect model; ref [21]; read-out: IC50 HDAC 2, Lechner et al.; cited from earlier work
HDAC6 = molecular target: T1, HDAC6 (Homo sapiens, UniProt Q9UBN7); test: Enzyme HDAC inhibition assay, HDAC6; conditions: read-out: IC50 HDAC 6; IC50 ± SEM; three experiments in duplicates
T1 sequence (Q9UBN7 1-1215): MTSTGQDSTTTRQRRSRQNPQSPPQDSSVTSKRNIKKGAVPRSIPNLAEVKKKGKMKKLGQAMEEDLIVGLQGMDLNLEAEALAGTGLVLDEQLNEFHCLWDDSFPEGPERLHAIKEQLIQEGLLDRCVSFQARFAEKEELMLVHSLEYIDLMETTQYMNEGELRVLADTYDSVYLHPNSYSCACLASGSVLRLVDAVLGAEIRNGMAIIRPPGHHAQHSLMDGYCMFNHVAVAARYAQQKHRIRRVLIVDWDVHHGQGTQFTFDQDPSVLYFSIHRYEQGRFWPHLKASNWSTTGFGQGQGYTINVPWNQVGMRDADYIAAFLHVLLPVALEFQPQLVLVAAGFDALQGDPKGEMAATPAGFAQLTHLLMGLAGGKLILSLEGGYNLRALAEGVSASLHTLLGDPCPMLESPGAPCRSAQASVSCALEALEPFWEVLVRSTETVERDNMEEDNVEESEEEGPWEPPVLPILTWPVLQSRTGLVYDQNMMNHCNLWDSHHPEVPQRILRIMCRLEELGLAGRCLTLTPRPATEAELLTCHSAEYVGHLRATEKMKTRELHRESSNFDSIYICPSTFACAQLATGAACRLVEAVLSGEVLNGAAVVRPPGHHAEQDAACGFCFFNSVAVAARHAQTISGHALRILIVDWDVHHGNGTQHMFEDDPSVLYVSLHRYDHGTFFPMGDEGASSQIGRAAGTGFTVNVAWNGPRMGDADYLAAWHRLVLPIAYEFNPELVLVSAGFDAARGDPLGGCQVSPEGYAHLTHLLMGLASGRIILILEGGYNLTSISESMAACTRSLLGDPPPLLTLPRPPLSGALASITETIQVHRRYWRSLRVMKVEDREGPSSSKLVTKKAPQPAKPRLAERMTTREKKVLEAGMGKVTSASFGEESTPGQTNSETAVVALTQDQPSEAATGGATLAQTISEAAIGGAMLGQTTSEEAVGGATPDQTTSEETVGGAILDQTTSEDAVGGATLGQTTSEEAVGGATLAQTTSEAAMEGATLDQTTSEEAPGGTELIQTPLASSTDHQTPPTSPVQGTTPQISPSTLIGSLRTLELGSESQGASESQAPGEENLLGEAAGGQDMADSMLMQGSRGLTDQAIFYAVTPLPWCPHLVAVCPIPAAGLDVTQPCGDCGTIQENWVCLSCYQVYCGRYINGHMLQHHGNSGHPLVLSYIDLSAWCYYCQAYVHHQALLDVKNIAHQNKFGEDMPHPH
Source text: as §1

T47D = test: MTT cell viability assay, T47D; type: cell-based, human
Experimental: MTT assays were performed as previously described. […] After incubation time, medium was replaced by MTT (solution of 5 mg/mL 3-(4,5-dimethylthiazol-2-yl)-2,5-diphenyl-tetrazoliumbromidin in phosphate buffered saline, Serva, Heidelberg, Germany).

HDAC8 [5] = molecular target: T2, HDAC8 (Homo sapiens, UniProt Q9BY41); test: Enzyme HDAC inhibition assay, HDAC8; conditions: read-out: IC50 HDAC 8; IC50 ± SEM; three experiments in duplicates
T2 sequence (Q9BY41 1-377): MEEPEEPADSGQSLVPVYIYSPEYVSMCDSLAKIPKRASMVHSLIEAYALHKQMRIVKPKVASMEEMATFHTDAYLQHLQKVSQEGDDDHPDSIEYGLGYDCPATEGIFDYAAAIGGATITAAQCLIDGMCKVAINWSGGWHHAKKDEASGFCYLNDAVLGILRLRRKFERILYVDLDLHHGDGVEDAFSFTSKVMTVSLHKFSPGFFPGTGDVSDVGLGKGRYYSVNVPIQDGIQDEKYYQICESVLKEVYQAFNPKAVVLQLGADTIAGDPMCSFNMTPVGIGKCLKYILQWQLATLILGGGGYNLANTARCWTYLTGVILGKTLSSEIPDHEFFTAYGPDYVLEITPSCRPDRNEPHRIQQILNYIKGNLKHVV
Source text: as §1

[6] = 120 h, IC50 ± SEM, read-out: IC50 MDA-MB-231, 120 h MTT assay
[7] = 120 h, IC50 ± SEM, read-out: IC50 T-47D, 120 h MTT assay

**Q.** For `O=C(O)CCCC[C@@H]1CCSS1` [(R)-α-lipoic acid], which IC50 (MDA-MB-231; 72 h MTT, slightly below, read-out: IC50 MDA-MB-231) is on record?
**A.** The IC50 was roughly 1000 µM.

**Q.** What about the IC50 (MDA-MB-231; [6]) of the same compound?
**A.** The IC50 was 225 ± 7.33 µM.

**Q.** And the “increase in potency by prolongation of incubation time, MDA-MB-231” value (MDA-MB-231; 120 h versus 72 h MTT)?
**A.** The value was 3.9 fold.

**Q.** What about the IC50 (MDA-MB-231; read-out: IC50 MDA-MB-231, 72 h MTT assay, 72 h, IC50 ± SEM) of the same compound?
**A.** The IC50 was 873 ± 36 µM.

**Q.** What about the IC50 (HDAC8 [1]) of the same compound?
**A.** Its IC50 is 127 µM.

**Q.** And the IC50 [2]?
**A.** The IC50 was 969 ± 120 µM.

**Q.** What about the IC50 (HDAC2 [3]) of the same compound?
**A.** The IC50 was 208 ± 34.9 µM.

**Q.** What about the IC50 (HDAC2 [4]) of the same compound?
**A.** Its IC50 is roughly 500 µM.

**Q.** And the IC50 (HDAC6)?
**A.** Its IC50 is 14.2 ± 2.62 µM.

**Q.** And the “reduction of proliferation at 100 µM, T47D” value (T47D; 100 µM, 120 h MTT)?
**A.** Its value is 12%.

**Q.** And the “reduction of proliferation at 300 µM, T47D” value (T47D; 300 µM, 120 h MTT, more pronounced effect in T47D)?
**A.** Its value is “significantly reduced proliferation”.

**Q.** What about the “decrease of cell viability, T47D” value (T47D; 1 mM, 72 h MTT) of the same compound?
**A.** The value was “approximately 35%”.

**Q.** And the IC50 (T47D; 72 h MTT, slightly above, read-out: IC50 T47D)?
**A.** The IC50 was roughly 1000 µM.

**Q.** And the IC50 (T47D; [7])?
**A.** Its IC50 is 435 ± 28.6 µM.

**Q.** What about the “increase in potency by prolongation of incubation time, T47D” value (T47D; 120 h versus 72 h MTT) of the same compound?
**A.** The value was 2.6 fold.

**Q.** And the IC50 (T47D; read-out: IC50 T-47D, 72 h MTT assay, 72 h, IC50 ± SEM)?
**A.** The IC50 was 1120 ± 67.8 µM.

**Q.** What about the IC50 (HDAC8 [5]) of the same compound?
**A.** Its IC50 is 151 ± 33.4 µM.

**Q.** With `O=C(O)CCCC[C@H]1CCSS1` [(S)-α-lipoic acid] as the compound, how does the IC50 (MDA-MB-231; [6]) read?
**A.** Its IC50 is 243 ± 25.1 µM.

**Q.** What about the IC50 (HDAC8 [1]) of the same compound?
**A.** The IC50 was greater than 500 µM.

**Q.** What about the IC50 [2] of the same compound?
**A.** Its IC50 is 906 ± 87.7 µM.

**Q.** What about the IC50 (HDAC2 [3]) of the same compound?
**A.** The IC50 was 299 ± 34.6 µM.

**Q.** What about the IC50 (HDAC2 [4]) of the same compound?
**A.** The IC50 was greater than 500 µM.

**Q.** What about the IC50 (HDAC6) of the same compound?
**A.** Its IC50 is 21.3 ± 1.23 µM.

**Q.** And the IC50 (T47D; [7])?
**A.** The IC50 was 338 ± 17.4 µM.

**Q.** And the IC50 (HDAC8 [5])?
**A.** Its IC50 is 559 ± 71 µM.
